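All cell lines were grown in 96-well plates and treated with compound for 48 hours. GI50 marks 50% less growth.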 Calls of active or inactive are those of the source. Rule as the data show it: active = GI50 up to about 1.1 µM and inactive = higher.
Columns and labels:
Experiment in all cases: inhibition of tumour cell growth, NCI panel, 48 h
[1] = test system: 786-0
[2] = test system: A549
[3] = test system: ACHN
[4] = test system: BT-549
[5] = test system: CAKI-1
[6] = test system: CCRF-CEM
[7] = test system: COLO 205
[8] = test system: DU-145
[9] = test system: EKVX
[10] = test system: HCC 2998
[11] = test system: HCT-116
[12] = test system: HCT-15
[13] = test system: HL-60
[14] = test system: HOP-62
[15] = test system: HT-29
[16] = test system: K562
[17] = test system: KM12
[18] = test system: LOX IMVI
[19] = test system: M14
[20] = test system: MCF7
[21] = test system: MDA-MB-231
[22] = test system: MDA-MB-435
[23] = test system: MDA-N
[24] = test system: MOLT-4
[25] = test system: Malme-3M
[26] = test system: NCI-H226
[27] = test system: NCI-H23
[28] = test system: NCI-H460
[29] = test system: NCI-H522
[30] = test system: NCI/ADR-RES
[31] = test system: OVCAR-3
[32] = test system: OVCAR-4
[33] = test system: OVCAR-5
[34] = test system: OVCAR-8
[35] = test system: RPMI-8226
[36] = test system: SF-268
[37] = test system: SF-295
[38] = test system: SF-539
[39] = test system: SK-MEL-28
[40] = test system: SK-MEL-2
[41] = test system: SK-MEL-5
[42] = test system: SN12C
[43] = test system: SNB-19
[44] = test system: SR
[45] = test system: T47D
[46] = test system: TK-10
[47] = test system: U-251
[48] = test system: UACC-257
[49] = test system: UACC-62
[50] = test system: UO-31
[51] = test system: A498
[52] = test system: Hs-578T
[53] = test system: IGROV-1
[54] = test system: PC-3
[55] = test system: RXF 393
[56] = test system: SK-OV-3
[57] = test system: SNB-75
[58] = test system: SW-620

Measured: GI50

c1cc2c(s1)-c1sccc1C21OCCO1
76.2 µM: [12]
inactive: [1] > 100 µM | [2] 69 µM | [3] > 100 µM | [4] 50.5 µM | [5] > 100 µM | [6] > 100 µM | [7] > 100 µM | [8] > 100 µM | [9] > 100 µM | [10] > 100 µM | [11] 58.9 µM | [13] > 100 µM | [14] > 100 µM | [15] 97.7 µM | [16] > 100 µM | [17] > 100 µM | [18] > 100 µM | [19] > 100 µM | [20] 49.9 µM | [21] > 100 µM | [22] > 100 µM | [23] > 100 µM | [24] > 100 µM | [25] 67.1 µM | [26] > 100 µM | [27] > 100 µM | [28] > 100 µM | [29] 82.8 µM | [30] > 100 µM | [31] > 100 µM | [32] > 100 µM | [33] > 100 µM | [34] > 100 µM | [35] 81.7 µM | [36] 18.7 µM | [37] > 100 µM | [38] > 100 µM | [39] > 100 µM | [40] 60 µM | [41] 53.5 µM | [42] > 100 µM | [43] > 100 µM | [44] > 100 µM | [45] 17.3 µM | [46] > 100 µM | [47] > 100 µM | [48] 45.6 µM | [49] 19.5 µM | [50] > 100 µM

C/C(=N/NC(=S)N1CCCC1)c1cccc(/C(C)=N\NC(=S)N2CCCC2)n1
inactive: [1] 1.37 µM | [51] 1.29 µM | [2] 1.44 µM | [4] 2.23 µM | [5] 1.28 µM | [8] 2.61 µM | [10] 1.21 µM | [11] 1.14 µM | [52] 3.49 µM | [17] 1.22 µM | [19] 1.25 µM | [22] 1.43 µM | [23] 1.38 µM | [25] 1.84 µM | [26] 1.62 µM | [27] 1.88 µM | [29] 1.8 µM | [30] 1.96 µM | [33] 1.7 µM | [35] 2.06 µM | [55] 1.32 µM | [36] 1.68 µM | [38] 1.36 µM | [39] 1.97 µM | [40] 1.7 µM | [41] 1.36 µM | [56] 1.46 µM | [42] 1.14 µM | [43] 2.57 µM | [57] 1.21 µM | [46] 1.39 µM | [47] 1.5 µM | [49] 2.25 µM
0.492 µM: [12]
active: [3] 0.791 µM | [6] 0.0667 µM | [7] 0.785 µM | [9] 0.152 µM | [13] 0.453 µM | [14] 0.378 µM | [15] 0.0318 µM | [53] 0.881 µM | [16] 0.0468 µM | [18] 0.0847 µM | [21] 0.046 µM | [24] 0.0412 µM | [28] 1.06 µM | [31] 0.0973 µM | [34] 1.11 µM | [54] 0.076 µM | [37] 0.548 µM | [44] 0.0944 µM | [58] 0.267 µM | [50] 0.766 µM

CCN(CC)CCNc1n[n+]([O-])c2ccccc2[n+]1[O-]
inactive: [1] 4.74 µM | [3] 3.79 µM | [4] 17.7 µM | [6] 3.57 µM | [7] 5.52 µM | [8] 13.9 µM | [10] 3.39 µM | [11] 8.22 µM | [13] 2.28 µM | [15] 8.93 µM | [53] 2.43 µM | [16] 3.25 µM | [17] 9.98 µM | [19] 10.1 µM | [22] 22.3 µM | [23] 12.2 µM | [24] 1.73 µM | [25] 8.38 µM | [26] 9.93 µM | [30] 18.6 µM | [31] 9.02 µM | [33] 14.7 µM | [34] 8.65 µM | [54] 8.53 µM | [35] 3.06 µM | [55] 8.63 µM | [36] 18.9 µM | [37] 4.78 µM | [38] 17.7 µM | [39] 39.3 µM | [41] 1.57 µM | [42] 3.56 µM | [43] 12.5 µM | [58] 11.9 µM | [45] 5.32 µM | [46] 8.89 µM | [47] 12.6 µM | [49] 3.96 µM | [50] 17.9 µM
2 µM: [12]
